Laboratory results taken from patent US11583547B2, “Chemotherapy drug-sensitizing method, agent composition and use thereof” (FU JEN CATHOLIC UNIVERSITY, priority 2020, dated 2023).

Assays:
Format in all cases: cell-based
[1] = test system: BxPC-3 pancreatic cancer cells; experiment: western blot of cell apoptosis marker (cleaved PARP) after antagomiR-1976 transfection; conditions: BxPC-3, antagomiR-1976 transfection; FIG. 4A
From the text: (§1) FIGS. 4A and 4B are cell apoptosis charts of BxPC-3 and AsPC-1 pancreatic cancer cells with antagomiR-1976 transfection obtained from western blot analysis applied in the chemotherapy drug-sensitizing method in accordance with the preferred embodiment of the present invention. Referring now to FIG. 4A, by way of example, results of pancreatic cancer cell BxPC-3 applied in the chemotherapy drug-sensitizing method in accordance with the present invention are shown. Referring now to FIG. 4B, by way of example, results of pancreatic cancer cell AsPC-1 applied in the chemotherapy drug-sensitizing method in accordance with the present invention are shown.

[2] = test system: AsPC-1 pancreatic cancer cells; experiment: as above; conditions: AsPC-1, antagomiR-1976 transfection; FIG. 4B
From the text: as §1

[3] = test system: pancreatic cancer cells; experiment: qPCR analysis of miR-1976 expression after gemcitabine induction; conditions: induction by gemcitabine; FIG. 1B
From the text: FIGS. 1A and 1B are microRNA expression charts released in extracellular vesicle and intracellular obtained from micro array analysis and qPCR analysis applied in the chemotherapy drug-sensitizing method in accordance with the preferred embodiment of the present invention.

Molecule	amount of pancreatic cancer cell apoptosis marker (cleaved PARP) [1]	amount of pancreatic cancer cell apoptosis marker (cleaved PARP) [2]	amount of miR-1976 in pancreatic cancer cells [3]
5′-ACAGCAAGGAGGGCAGGAGG-3′ (listed as RNA, chemistry not given here) [antagomiR-1976]	obviously increased	obviously increased	
Nc1ccn([C@@H]2O[C@H](CO)[C@@H](O)C2(F)F)c(=O)n1 [gemcitabine]			selectively increased
